Consider 15 compounds from ChEMBL document CHEMBL1201862, “PubChem BioAssay data set” (2004).

Experiment [1] addresses T1, Low molecular weight phosphotyrosine protein phosphatase (Homo sapiens, UniProt P24666).
T1 sequence (P24666 whole entry): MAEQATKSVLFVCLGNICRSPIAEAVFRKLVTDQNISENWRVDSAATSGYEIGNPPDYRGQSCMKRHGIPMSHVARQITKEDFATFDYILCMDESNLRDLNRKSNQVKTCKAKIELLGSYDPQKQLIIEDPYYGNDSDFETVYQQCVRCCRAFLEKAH
Type of experiment: functional. The note with it: read-out: IC50_Mean.

The target in experiment [2] is T1, Low molecular weight phosphotyrosine protein phosphatase. Type of experiment: functional. The following applies: read-out: IC50_Mean. The source holds these as a separate data set.
The next experiment concerns the target T2, Protein skinhead-1 (Caenorhabditis elegans, UniProt P34707).
T2 sequence (P34707 whole entry): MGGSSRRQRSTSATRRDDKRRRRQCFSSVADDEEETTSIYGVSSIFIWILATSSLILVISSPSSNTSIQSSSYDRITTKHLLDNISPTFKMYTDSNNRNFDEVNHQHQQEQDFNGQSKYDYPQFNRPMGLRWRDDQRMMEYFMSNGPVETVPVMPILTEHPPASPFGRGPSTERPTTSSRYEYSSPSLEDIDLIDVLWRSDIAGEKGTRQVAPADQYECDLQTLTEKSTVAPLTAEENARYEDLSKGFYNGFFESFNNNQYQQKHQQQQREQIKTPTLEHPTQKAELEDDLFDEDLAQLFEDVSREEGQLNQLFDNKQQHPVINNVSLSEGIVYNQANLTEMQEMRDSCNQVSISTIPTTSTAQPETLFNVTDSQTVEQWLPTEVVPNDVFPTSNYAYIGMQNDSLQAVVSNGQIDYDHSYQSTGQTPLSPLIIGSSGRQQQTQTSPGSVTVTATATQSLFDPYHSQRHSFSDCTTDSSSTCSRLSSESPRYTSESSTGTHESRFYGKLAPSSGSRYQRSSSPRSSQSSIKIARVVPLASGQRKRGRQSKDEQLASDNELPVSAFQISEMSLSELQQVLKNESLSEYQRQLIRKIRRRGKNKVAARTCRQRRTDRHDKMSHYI
Type of experiment: functional.

The next experiment deals with Protein Wnt-3a (Mus musculus, UniProt P27467). Put plainly: antagonism of Wnt3a pathway luciferase reporter – Wnt-LIGHT cells, luminescence, selectivity assay for Gli-SUFU antagonist project, dose response (AID 651570).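 Further: Wnt-LIGHT reporter cells stimulated with conditioned medium from Wnt3a-producing cells.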 Type of experiment: functional. The note with it: read-out: IC50_Mean.
A short description of experiment [3]: Luminescence Cell-Based Dose Confirmation HTS to Identify Activators of 5'UTR Stem-Loop Driven Alpha-Synuclein mRNA Translation in H4 Neuroglioblastoma Cells. [Related pubchem assays: 1829 (Project Summary), 1814 (Primary HTS)]. Type of experiment: functional.
Experiment [4] is described as follows: Luminescence Cell-Based Dose Response HTS to Identify Activators of Luciferase Translation or Activity in H4 […] Cells. [Related pubchem assays: 1829 (Project Summary), 1814 (Primary HTS)]. Type of experiment: functional.
Experiment [5] relates to BJ. Put plainly: BJ-TERT fibroblast viability loss – cell-based, RAS-independent, luminescence, dose response (AID 1933). The note with it: Homo sapiens. Type of experiment: functional.
A short description of experiment [6]: cells. Type of experiment: functional, cell-based.
A further experiment relates to H4. Put plainly: Luminescence Cell-Based Dose Response HTS to Identify Activators of 5'UTR Stem-Loop Driven Prion Protein mRNA Translation in H4 Neuroglioblastoma Cells. [Related pubchem assays: 1829 (Project Summary), 1814 (Primary HTS)]. Type of experiment: functional. The note with it: Homo sapiens.
In experiment [7] the test system is BJ. Description: cells. Type of experiment: functional, cell-based. The note with it: Homo sapiens.
Experiment [8] can be described thus: cells. Type of experiment: functional, cell-based. The source holds these as a separate data set.
The test system of experiment [9] is BJ. Description: BJ-TERT-LT-ST fibroblast viability loss – cell-based, RAS-independent, luminescence, dose response (AID 1935).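 Further: BJ fibroblasts immortalized with TERT plus LT and ST oncogenes.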 Type of experiment: functional. The following applies: Homo sapiens.
The nature of experiment [10]: DRD fibroblast viability loss – cell-based, non-viral oncogenic, luminescence, dose response (AID 1934). Type of experiment: functional. The note with it: Homo sapiens.
Experiment [11] concerns the target T3, Microphthalmia-associated transcription factor (Homo sapiens, UniProt O75030).
T3 sequence (O75030 whole entry): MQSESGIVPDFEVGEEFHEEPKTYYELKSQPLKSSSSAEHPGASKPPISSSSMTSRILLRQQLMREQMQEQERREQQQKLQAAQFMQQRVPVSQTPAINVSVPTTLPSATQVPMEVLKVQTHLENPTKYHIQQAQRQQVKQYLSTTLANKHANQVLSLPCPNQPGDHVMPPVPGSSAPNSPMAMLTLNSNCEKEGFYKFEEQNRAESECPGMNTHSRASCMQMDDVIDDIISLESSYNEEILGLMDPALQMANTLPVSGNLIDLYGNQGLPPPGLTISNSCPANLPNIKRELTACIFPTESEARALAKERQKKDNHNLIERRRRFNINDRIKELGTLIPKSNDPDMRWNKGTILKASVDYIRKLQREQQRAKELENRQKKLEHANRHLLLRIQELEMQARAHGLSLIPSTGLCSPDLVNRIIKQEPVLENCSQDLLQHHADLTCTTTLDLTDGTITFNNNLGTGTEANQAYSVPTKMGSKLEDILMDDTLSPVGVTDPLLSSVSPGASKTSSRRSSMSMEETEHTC
Put plainly: reducers of TRPM1 reporter luminescence, concentration series – cell-based, SK-MEL-5, cherry-picked, set 3, MITF inhibitor project, dose response (AID 493073).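 Further: SK-MEL-5 melanoma cells with luciferase driven by the MITF target TRPM1 promoter.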 Type of experiment: functional.

Experiment [12] is described as follows: reduction of Shn3 3'UTR-driven luciferase in osteoblasts – cell-based, Clone20 osteoblasts, firefly luciferase, cherry-picked, dose response (AID 624132).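 Further: firefly luciferase luminescence from reporter carrying the Shn3 3'UTR in osteoblasts.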 Type of experiment: functional.
Experiment [13] in a line: loss of viability in HepG2 cells – cell-based, CellTiter-Glo, cherry-picked, cytotoxicity control for Shn3 inhibitor project, dose response (AID 624134). Type of experiment: functional. On the technique in general: In ATP-based viability assays light output follows the ATP content of the culture.
Experiment [14] can be described thus: non-specific 3'UTR reporter inhibition in Clone20-Shn3RL – cell-based, Renilla luciferase, cherry-picked, counter-screen for Shn3 inhibitor project, dose response (AID 624133). Type of experiment: functional. In general terms: The purpose of a counterscreen is to sort out artefacts and off-target activity.
In experiment [15] the target is T4, High affinity choline transporter 1 (Homo sapiens, UniProt Q9GZV3).
T4 sequence (Q9GZV3 whole entry): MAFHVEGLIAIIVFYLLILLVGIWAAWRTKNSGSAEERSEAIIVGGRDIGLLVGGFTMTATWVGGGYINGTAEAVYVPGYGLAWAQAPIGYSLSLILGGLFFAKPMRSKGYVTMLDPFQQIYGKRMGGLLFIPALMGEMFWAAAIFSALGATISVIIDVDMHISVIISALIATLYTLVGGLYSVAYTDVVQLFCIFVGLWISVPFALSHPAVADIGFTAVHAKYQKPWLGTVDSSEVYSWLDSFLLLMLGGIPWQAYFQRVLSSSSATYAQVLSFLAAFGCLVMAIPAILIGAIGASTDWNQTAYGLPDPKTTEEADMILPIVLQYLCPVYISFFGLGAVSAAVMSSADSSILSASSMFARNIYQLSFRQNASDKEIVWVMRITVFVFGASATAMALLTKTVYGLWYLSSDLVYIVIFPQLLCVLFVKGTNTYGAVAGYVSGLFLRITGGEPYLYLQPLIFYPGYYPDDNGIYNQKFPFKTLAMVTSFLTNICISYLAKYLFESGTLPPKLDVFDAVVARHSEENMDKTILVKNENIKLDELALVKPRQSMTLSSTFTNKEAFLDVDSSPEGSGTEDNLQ
Put plainly: human choline transporter blockers, potency – cell-based, 5-point CRC, membrane potential dye, dose response (AID 504840). Type of experiment: functional.

A short description of experiment [16]: NIH-3T3 fibroblast cytotoxicity, dose response, cytotoxicity control, cell-based, fluorescence, Alamar Blue, secondary assay (AID 2327).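 Further: NIH-3T3 mouse fibroblasts cultured with fluconazole at 8 µg/mL.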 Type of experiment: functional. (The colour change of resazurin is a common sign of viable cells or microbes.)
The nature of experiment [17]: fluconazole-exposed Candida albicans growth modulators – fluorescence, retest, confirmation (AID 2467). Type of experiment: functional, cell-based.
A short description of experiment [18]: cells. Type of experiment: functional.
Experiment [19] has as its system Vero. Put plainly: cells. Type of experiment: functional, cell-based. The note with it: Chlorocebus sabaeus.
Experiment [20] is described as follows: viability of uninfected HEp-2 cells – cell-based, HTS, cytotoxicity control for RSV inhibitor project, dose response (AID 2410). Type of experiment: functional. The following applies: human respiratory syncytial virus.
Experiment [21] is described as follows: cells.
The nature of experiment [22]: Fluorescence-based cell-based high throughput dose response assay for inhibitors of the interaction of nucleotide-binding oligomerization domain containing 2 (NOD2) and the receptor-interacting serine-threonine kinase 2 (RIPK2). Type of experiment: functional. The note with it: Homo sapiens.
The target of experiment [23] is Neurotensin receptor type 1 (Homo sapiens, UniProt P30989). Type of experiment: functional.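 Further: Image-based confirmatory dose-response assay measuring agonist activity at NTR1; NTR1-expressing U2OS osteosarcoma cells imaged for beta-arrestin GFP spot formation; agonist potency where compounds increase beta-arrestin recruitment.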
In experiment [24] the target is Heat shock protein HSP 90-alpha (Homo sapiens, UniProt P07900). Type of experiment: functional, organism-based.
The test system of the next experiment is INS1. Description: INS-1E survival protection against cytokine death – cell-based, luminescence, retest, dose response (AID 449756).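 Further: cell death triggered by IL-1 beta plus TNF-alpha plus IFN-gamma mixture; protective hits raise ATP signal compared with cytokine alone wells.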 Type of experiment: functional. The note with it: Rattus norvegicus.
Another experiment has as its system HEK293. Description: EBV LMP1 TES2 canonical NF-kB signalling blockers – cell-based, HEK293, luciferase, cherry-pick, dose response (AID 588343). Type of experiment: functional. The following applies: Homo sapiens.
Experiment [25] has as its system Vero. Description: cells. Type of experiment: functional. The note with it: Chlorocebus sabaeus.

Each structure is given as a SMILES string. The source made the active and inactive calls.

Sequence of Protein Wnt-3a (P27467 whole entry): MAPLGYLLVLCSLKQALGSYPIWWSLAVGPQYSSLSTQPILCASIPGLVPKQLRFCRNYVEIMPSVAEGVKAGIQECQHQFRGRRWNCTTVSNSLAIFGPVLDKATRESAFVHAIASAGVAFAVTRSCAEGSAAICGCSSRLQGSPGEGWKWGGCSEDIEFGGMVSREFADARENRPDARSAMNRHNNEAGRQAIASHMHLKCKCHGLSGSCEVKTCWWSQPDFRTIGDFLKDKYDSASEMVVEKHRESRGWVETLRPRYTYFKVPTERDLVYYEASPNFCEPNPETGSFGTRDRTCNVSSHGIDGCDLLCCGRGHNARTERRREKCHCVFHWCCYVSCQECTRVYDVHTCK
Sequence of Neurotensin receptor type 1 (P30989 whole entry): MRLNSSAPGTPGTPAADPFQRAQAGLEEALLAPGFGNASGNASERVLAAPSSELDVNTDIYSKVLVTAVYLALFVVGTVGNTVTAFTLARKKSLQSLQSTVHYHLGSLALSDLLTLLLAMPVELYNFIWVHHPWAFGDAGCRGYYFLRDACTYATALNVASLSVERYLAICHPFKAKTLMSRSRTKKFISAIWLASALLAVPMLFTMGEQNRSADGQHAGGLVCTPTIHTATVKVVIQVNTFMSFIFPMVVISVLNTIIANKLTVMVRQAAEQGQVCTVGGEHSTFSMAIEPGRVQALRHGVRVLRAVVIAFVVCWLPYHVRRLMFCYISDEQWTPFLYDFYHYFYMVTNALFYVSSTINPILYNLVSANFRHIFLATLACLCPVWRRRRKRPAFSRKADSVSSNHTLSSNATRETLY

Take `CNc1nc(NC)c2c[nH]nc2n1`: the IC50 in experiment [1] was 33 µM (inactive); in experiment [2], 9.16 µM (active).
On the same counts, the results for `Cc1c(-c2ccccc2)c(-c2ccc(OCCN(C)C)cc2)n2ccccc12` are 31.3 µM (inactive) and 4.82 µM (active).
As to `CN1/C(=C\C(=O)COC(=O)CNC(=O)c2ccc3ccccc3c2)C(C)(C)c2ccccc21`, the values for the IC50 at Protein skinhead-1 and at Protein Wnt-3a were > 100 µM (inactive) and 50 µM (inactive), respectively.
Usually EC50 stands for the concentration needed to bring the measured effect to its halfway point. A word on the AC50: it is the midpoint of the concentration-response curve, whichever way the signal moves. With `COc1cc(/C=C/C(=O)c2ccc3c(c2)OCCO3)cc(Br)c1OCC(=O)N(C)C`, the EC50 was 5.83 µM (active) in experiment [3]; 14.4 µM (active) in experiment [4]; 4.75 µM (active) in the experiment on BJ [5]; > 350 µM (not active) in “cells [6]”; > 120 µM (not active) with H4; 3.4 µM (inconclusive) in the experiment with BJ [7]. Besides, the figures for the EC50 (in the experiment “cells [8]”; with BJ [9]; in experiment [10]) were > 350 µM (not active), 5.55 µM (inconclusive) and 5.43 µM (inconclusive), respectively. Besides, the AC50 in experiment [11] was 6.17 µM (active); in experiment [12], 2.63 µM (active); in experiment [13], 14.2 µM (active); in experiment [14] it was 8.52 µM (active).
Turning to `O=C(NNC(=S)Nc1ccc(Cl)cc1)c1ccccc1OC(F)F`, the IC50 in experiment [15] was 13.8 µM (active).
With `O=[N+]([O-])c1ccc(Nc2ccccc2)c2nonc12`, the concentration giving a half-maximal response (EC50) was > 150 µM (inconclusive) in experiment [16] and < 0.03 µM (active) in experiment [17]. Besides, the IC50 in the experiment “cells [18]” is 7.68 µM (active); in experiment [15], 11.8 µM (active); on Protein skinhead-1, 41.5 µM (active).
Regarding `Cc1ccc(C(=O)C[n+]2cc(Br)cc(Br)c2)cc1`, the IC50 in experiment [15] was 11.4 µM (active).
In the case of `Cc1ccc(NC(=O)NCc2ccc3[nH]c(C)cc3c2)cc1`, the IC50 with Vero [19] is > 25 µM (active).
Same read-out and setting: under `O=C(CCCN1C(=O)/C(=C\c2ccco2)SC1=S)Nc1ccc2ccccc2c1` stands 8.01 µM (active).
For orientation: CC50 means the concentration giving 50% cytotoxicity. For the compound `Cc1cccc(C(=O)Nc2ccccc2SCC2CSc3nc4ccccc4c(=O)n32)c1` (centres undefined), in experiment [20], the CC50 is 43 µM (active). Moreover, the IC50 in the experiment with Vero [19] is > 25 µM (active); in “cells [21]”, 19.9 µM (active).
Consider `O=C(NCCN1C(=O)S/C(=C\c2ccc(Cl)c([N+](=O)[O-])c2)C1=O)C1=COCCO1`, for which the IC50 in experiment [22] was 1.62 µM (active).
Take `COc1ccc(C(C[N+](=O)[O-])n2nc(C)cc2C)cc1` (centres undefined): the EC50 in [23] was 10.1 µM (active). Besides, in [24], the half-maximal activity concentration (AC50) is 1.94 µM (active). Moreover, the IC50 in experiment [22] is 1.63 µM (active).
Regarding `CC1Sc2n(c3ccccc3[n+]2C)N=C1c1ccccc1` (centres undefined), on Protein Wnt-3a, the IC50 is 3.6 µM (active).
For `COc1ccc(NS(=O)(=O)c2ccc(N3CCCCC3)c(N)c2)cc1`, the AC50 was 3.22 µM (active) in the experiment with INS1, 0.824 µM (active) in [12], 4.01 µM (active) in experiment [13] and 1.51 µM (active) in experiment [14]. The IC50 at Protein Wnt-3a is 0.102 µM (active).
As for `CC1CC(C)C(=O)C(C(CC2CC(=O)NC(=O)C2)OC(=O)CC(=O)c2ccccc2)C1` (centres undefined), in the experiment with HEK293, the concentration at half-maximal activity (AC50) is 42.3 µM (active). Besides, the IC50 in the experiment with Vero [19] is > 25 µM (active). The CC50 in the experiment on Vero [25] is 9.24 µM (active).
